Assay results as given in article PMC10258794, “To Fold or Not to Fold: Diastereomeric Optimization of an α-Helical Antimicrobial Peptide” (Journal of Medicinal Chemistry, 2023).
≈ marks a conversion by molar mass, not a printed value. Like-named read-outs stand apart in the source and are kept apart here.

How the values were obtained:
P. aeruginosa ZEM9A = assay: microbe, parasite or virus in culture; format: cell-based, Pseudomonas aeruginosa; conditions: pH 7.4
Description: (§1) Antimicrobial activity was determined for all peptides on E. coli W3110, P. aeruginosa PAO1, A. baumannii ATCC19606, K. pneumoniae NCTC418, and methicillin-resistant S. aureus COL and for selected peptides on P. aeruginosa PA14 and the polymyxin B-resistant derivatives PA14 4.13, PA14 4.18, and PA14 2P4 as well as the clinical isolates ZEM-1A and ZEM9A, K. pneumoniae OXA-48, Enterobacter cloacae, Stenotrophomonas maltophilia, B. cenocepacia, and Staphylococus epidermis. To determine the MIC, the broth microdilution method was used.[75] A single bacterial colony was grown in LB medium overnight at 37 °C and 180 rpm shaking. The compounds were prepared as stock solutions of 2 mg/mL in sterilized milliQ deionized water, added to the first well of 96-well sterile, polypropylene round-bottom microtiter plates (TPP, untreated, Corning Incorporated, Kennebunk, USA), and diluted serially by 1/2. […] The bacterial inoculum was prepared by measuring the absorbance of the overnight culture, which was diluted to concentration of the bacteria was quantified by measuring absorbance at 600 nm and diluted to an OD600 of 0.022 in MH medium pH 7.4 (Sigma-Aldrich, Buchs, Switzerland). The sample solutions (150 μL) were mixed with 4 μL of diluted bacterial suspension with a final inoculation of about 5 × 10^5 CFU. For each test, two columns of the plate were kept for sterility control (MH medium only) and growth control (MH medium with bacterial inoculum, no compound). […] The plates were incubated at 37 °C for 16–20 h under static conditions. 15 μL of 3-(4,5-dimethylthiazol-2-yl)-2,5-diphenyltetrazolium bromide (MTT)[76] (1 mg/mL in sterilized milliQ deionized water) was added to each well, and the plates were incubated at room temperature until MTT staining was completed. The MIC was defined as the lowest concentration of the dendrimer that inhibits the visible growth of the tested bacteria (yellow) with the unaided eye.

HEK293 cells = assay: Alamar blue cytotoxicity, HEK293; format: cell-based, human; conditions: 24 h, mean ± SD, n = 3, read-out: Toxicity on HEK293 cells
Description: (§2) The A549 human lung adenocarcinoma cells are derived from a patient and were kindly given to us by Dr. Georgia Konstatinidou (Pharmacology Institute, Bern University). HEK293T cells were obtained from ATCC (CRL-11268). A549 and HEK293 were cultured in an incubator at 37 °C with 5% CO2 in RPMI-1640 (Gibco) and DMEM (Gibco) containing 10% fetal bovine serum (Thermo Fisher), 100 I.U./mL penicillin, and 100 μg/mL streptomycin (Gibco).
(§3) The viability of the cells was assessed with an AlamarBlue assay (ThermoFisher). Cells were seeded into 96-well plates, 4000 cells/well (HEK293) and 8000 cells/well (A549), the day before the experiment. Cells were then treated with the increasing concentration of the compound and incubated for 24 h at 37 °C in the presence of 5% CO2. The next day, the medium was removed and replaced by a 10% AlamarBlue solution in full growth medium (DMEM or RPMI-1640). The cells were incubated for 3–5 h at 37 °C with 5% CO2 in a humidified atmosphere. The fluorescence was then measured on a Tecan Infinite M1000 Pro plate reader at λex 560 nm and λem 590 nm. The value was normalized according to the untreated cells.

[1] = tested on: Stenotrophomonas maltophilia; assay: microbe, parasite or virus in culture; format: cell-based; conditions: pH 7.4
Description: as §1

K. pneumoniae Oxa-48 = assay: MIC broth microdilution, K. pneumoniae Oxa-48; format: cell-based, Klebsiella pneumoniae; conditions: MDR strain; MH broth pH 7.4, 16–20 h, 37 °C
Description: as §1

S. aureus Newman = conditions: for MIC S. aureus Newman: MH broth pH 7.4, 16–20 h, 37 °C; for MIC S. aureus Newmann: supplementary CSV
K. pneumoniae NCTC418 = tested on: K. pneumoniae NCTC418
Procedure, shortened: (§4)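 Growth inhibition is judged by eye after MTT addition, the MIC being the lowest compound concentration whose well stays yellow. Bacteria from overnight LB cultures are diluted in MH medium at pH 7.4 to roughly 5 × 10^5 CFU and incubated with doubling dilutions at 37 °C, unshaken, 16–20 h.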

A. baumannii ATCC19606 = tested on: A. baumannii ATCC19606
Procedure, shortened: as §4

S. aureus COL MRSA = conditions: for MIC S. aureus COL MRSA: MH broth pH 7.4, 16–20 h, 37 °C; for MIC S. aureus COL: supplementary CSV, ranges of Table 1 given as one number
Procedure, shortened: as §4

P. aeruginosa PAO1 = tested on: P. aeruginosa PAO1
Procedure, shortened: as §4

E. coli W3110 = tested on: E. coli W3110
Procedure, shortened: as §4

PA14 2P4 (pmrB) = assay: microbe, parasite or virus in culture; conditions: supplementary CSV
Description: as §1

PA14 4.13 (phoQ) = assay: microbe, parasite or virus in culture; conditions: supplementary CSV
Description: as §1

PA14 4.18 (pmrB) = assay: microbe, parasite or virus in culture; conditions: supplementary CSV
Description: as §1

Enterobacter cloacae = assay: microbe, parasite or virus in culture; conditions: pH 7.4
Description: as §1

P. aeruginosa PA14 = assay: microbe, parasite or virus in culture; conditions: for MIC PA14: MH broth pH 7.4, 16–20 h, 37 °C; for MIC P. aeruginosa PA14: supplementary CSV
Description: as §1

P. aeruginosa ZEM-1A = assay: microbe, parasite or virus in culture; conditions: pH 7.4
Description: as §1

Burkolderia cenocepacia = assay: microbe, parasite or virus in culture; conditions: for MIC Burkolderia cenocepacia: MDR strain, MH broth pH 7.4, 16–20 h, 37 °C; for MIC B. cenocepacia: supplementary CSV
Description: as §1

Staphylococcus epidermis = assay: MIC broth microdilution, Staphylococcus epidermis; format: cell-based; conditions: pH 7.4
Description: as §1

A549 cells = assay: Alamar blue cytotoxicity, A549; format: cell-based, human; conditions: 24 h, mean ± SD, n = 3, read-out: Toxicity on A549 lung cancern cells
Description: as §2, §3

[2] = MH broth pH 7.4, 16–20 h, 37 °C
[3] = supplementary CSV, ranges of Table 1 given as one number

| SMILES | IC50 (HEK293 cells) [µM] | MIC Stenotrophomonas maltophilia [1] [µg/mL] | MIC K. pneumoniae Oxa-48 (K. pneumoniae Oxa-48) [µg/mL] | MIC S. aureus Newman (S. aureus Newman) [µg/mL] | MIC S. aureus Newmann (S. aureus Newman) [µg/mL] | MIC K. pneumoniae NCTC418 (K. pneumoniae NCTC418; [2]) [µg/mL] | MIC K. pneumoniae NCTC418 (K. pneumoniae NCTC418; [3]) [µg/mL] | MIC A. baumannii ATCC19606 (A. baumannii ATCC19606; [2]) [µg/mL] | MIC A. baumannii ATCC19606 (A. baumannii ATCC19606; [3]) [µg/mL] | MIC S. aureus COL MRSA (S. aureus COL MRSA) [µg/mL] | MIC S. aureus COL (S. aureus COL MRSA) [µg/mL] | MIC P. aeruginosa PAO1 (P. aeruginosa PAO1; [2]) [µg/mL] | MIC P. aeruginosa PAO1 (P. aeruginosa PAO1; [3]) [µg/mL] | MIC E. coli W3110 (E. coli W3110; [2]) [µg/mL] | MIC P. aeruginosaPA14 2P4 (PA14 2P4 (pmrB)) [µg/mL] | MIC P. aeruginosa PA14 4.13 (PA14 4.13 (phoQ)) [µg/mL] | MIC P. aeruginosa PA14 4.18 (PA14 4.18 (pmrB)) [µg/mL] | MIC Enterobacter cloacae (Enterobacter cloacae) [µg/mL] | MIC PA14 (P. aeruginosa PA14) [µg/mL] | MIC P. aeruginosa PA14 (P. aeruginosa PA14) [µg/mL] | further results |
| --- | --- | --- | --- | --- | --- | --- | --- | --- | --- | --- | --- | --- | --- | --- | --- | --- | --- | --- | --- | --- | --- |
| CC(C)C[C@H](NC(=O)[C@H](CC(C)C)NC(=O)[C@H](CC(C)C)NC(=O)[C@H](CCCCN)NC(=O)[C@H](CC(C)C)NC(=O)[C@H](CC(C)C)NC(=O)[C@H](CCCCN)NC(=O)[C@@H](CC(C)C)NC(=O)[C@H](CC(C)C)NC(=O)[C@@H](CCCCN)NC(=O)[C@@H](N)CCCCN)C(N)=O [HP4, KkLlKLLKLLL] | 43.7 ± 0.8 | 2 (≈ 1.51 µM) | 2 (≈ 1.51 µM) | 2 (≈ 1.51 µM) | 2 (≈ 1.51 µM) | 2 (≈ 1.51 µM) | 2 (≈ 1.51 µM) | 2 to 4 | 3 (≈ 2.27 µM) | 2 to 4 | 3 (≈ 2.27 µM) | 2 to 4 | 3 (≈ 2.27 µM) | 2 to 4 | 64 (≈ 48.4 µM) | 4 (≈ 3.03 µM) | 32 (≈ 24.2 µM) | 2 (≈ 1.51 µM) | 2 (≈ 1.51 µM) | 2 (≈ 1.51 µM) | MIC ZEM9A (P. aeruginosa ZEM9A): 4 µg/mL (≈ 3.03 µM); MIC E. coli W3110 (E. coli W3110; [3]): 3 µg/mL (≈ 2.27 µM); MIC ZEM-1A (P. aeruginosa ZEM-1A): 2 µg/mL (≈ 1.51 µM); MIC Burkolderia cenocepacia (Burkolderia cenocepacia): >64 µg/mL; MIC Staphylococcus epidermis (Staphylococcus epidermis): 2 µg/mL (≈ 1.51 µM); IC50 (A549 cells): 4.6 ± 4.9 µM |
| CC(C)C[C@H](NC(=O)[C@H](CC(C)C)NC(=O)[C@H](CC(C)C)NC(=O)[C@@H](CCCCN)NC(=O)[C@H](CC(C)C)NC(=O)[C@H](CC(C)C)NC(=O)[C@@H](CCCCN)NC(=O)[C@H](CC(C)C)NC(=O)[C@H](CC(C)C)NC(=O)[C@@H](CCCCN)NC(=O)[C@H](N)CCCCN)C(N)=O [ln69, kkLLkLLkLLL] | 45 ± 8.9 | 2 (≈ 1.51 µM) | 4 (≈ 3.03 µM) | 8 (≈ 6.05 µM) | 8 (≈ 6.05 µM) | 8 (≈ 6.05 µM) | 8 (≈ 6.05 µM) | 2 to 4 | 3 (≈ 2.27 µM) | 16 (≈ 12.1 µM) | 16 (≈ 12.1 µM) | 8 (≈ 6.05 µM) | 8 (≈ 6.05 µM) | 4 (≈ 3.03 µM) | 32 (≈ 24.2 µM) | 4 (≈ 3.03 µM) | 16 (≈ 12.1 µM) | 4 (≈ 3.03 µM) | 2 (≈ 1.51 µM) | 2 (≈ 1.51 µM) | MIC ZEM9A (P. aeruginosa ZEM9A): 8 µg/mL (≈ 6.05 µM); MIC ZEM-1A (P. aeruginosa ZEM-1A): 2 µg/mL (≈ 1.51 µM); MIC Burkolderia cenocepacia (Burkolderia cenocepacia): >64 µg/mL; MIC B. cenocepacia (Burkolderia cenocepacia): > 64 µg/mL; MIC Staphylococcus epidermis (Staphylococcus epidermis): 4 µg/mL (≈ 3.03 µM); IC50 (A549 cells): 21 ± 3.3 µM |
| CC(C)C[C@H](NC(=O)[C@H](CC(C)C)NC(=O)[C@H](CC(C)C)NC(=O)[C@H](CCCCN)NC(=O)[C@H](CC(C)C)NC(=O)[C@H](CC(C)C)NC(=O)[C@@H](CCCCN)NC(=O)[C@H](CC(C)C)NC(=O)[C@H](CC(C)C)NC(=O)[C@@H](CCCCN)NC(=O)[C@H](N)CCCCN)C(N)=O [HP10, kkLLkLLKLLL] | 75.1 ± 1.7 | 2 (≈ 1.51 µM) | 2 (≈ 1.51 µM) | 2 (≈ 1.51 µM) | 2 (≈ 1.51 µM) | 4 (≈ 3.03 µM) | 4 (≈ 3.03 µM) | 2 (≈ 1.51 µM) | 2 (≈ 1.51 µM) | 2 (≈ 1.51 µM) | 2 (≈ 1.51 µM) | 4 (≈ 3.03 µM) | 4 (≈ 3.03 µM) | 2 (≈ 1.51 µM) | 32 (≈ 24.2 µM) | 4 (≈ 3.03 µM) | 16 (≈ 12.1 µM) | 2 (≈ 1.51 µM) | 2 (≈ 1.51 µM) | 2 (≈ 1.51 µM) | MIC ZEM9A (P. aeruginosa ZEM9A): 4 µg/mL (≈ 3.03 µM); MIC ZEM-1A (P. aeruginosa ZEM-1A): 2 µg/mL (≈ 1.51 µM); MIC Burkolderia cenocepacia (Burkolderia cenocepacia): >64 µg/mL; MIC B. cenocepacia (Burkolderia cenocepacia): > 64 µg/mL; MIC Staphylococcus epidermis (Staphylococcus epidermis): 2 µg/mL (≈ 1.51 µM); IC50 (A549 cells): 15 ± 0.7 µM |
| CC(C)C[C@H](NC(=O)[C@H](CC(C)C)NC(=O)[C@H](CC(C)C)NC(=O)[C@H](CCCCN)NC(=O)[C@H](CC(C)C)NC(=O)[C@H](CC(C)C)NC(=O)[C@@H](CCCCN)NC(=O)[C@H](CC(C)C)NC(=O)[C@H](CC(C)C)NC(=O)[C@@H](CCCCN)NC(=O)[C@@H](N)CCCCN)C(N)=O [HP3, KkLLkLLKLLL] | 69 ± 2.6 | 4 (≈ 3.03 µM) | 4 (≈ 3.03 µM) | 2 (≈ 1.51 µM) | 2 (≈ 1.51 µM) | 8 (≈ 6.05 µM) | 8 (≈ 6.05 µM) | 2 (≈ 1.51 µM) | 2 (≈ 1.51 µM) | 2 to 4 | 3 (≈ 2.27 µM) | 4 (≈ 3.03 µM) | 4 (≈ 3.03 µM) | 2 (≈ 1.51 µM) | 32 (≈ 24.2 µM) | 8 (≈ 6.05 µM) | 32 (≈ 24.2 µM) | 4 (≈ 3.03 µM) | 4 (≈ 3.03 µM) | 4 (≈ 3.03 µM) | MIC ZEM-1A (P. aeruginosa ZEM-1A): 2 µg/mL (≈ 1.51 µM); MIC Burkolderia cenocepacia (Burkolderia cenocepacia): >64 µg/mL; MIC B. cenocepacia (Burkolderia cenocepacia): > 64 µg/mL; MIC Staphylococcus epidermis (Staphylococcus epidermis): 4 µg/mL (≈ 3.03 µM); IC50 (A549 cells): 5.4 ± 4.4 µM |
